Measurements from ChEMBL document CHEMBL1201862, “PubChem BioAssay data set” (2004).
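Compound exposure: 48 hours, 5 concentrations, 96-well plates. Abbreviation: GI50, concentration required for 50% inhibition of growth.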 The source made the active and inactive calls. Cut-off read from the data, not from the text of the source: active = GI50 up to about 1.1 µM and inactive = higher.

Assays:
Assay in all cases: NCI anticancer screen, dose series, 48 h
786-0 = tested on: 786-0
A498 = tested on: A498
A549 = tested on: A549
ACHN = tested on: ACHN
BT-549 = tested on: BT-549
CAKI-1 = tested on: CAKI-1
CCRF-CEM = tested on: CCRF-CEM
COLO 205 = tested on: COLO 205
DU-145 = tested on: DU-145
EKVX = tested on: EKVX
HCC 2998 = tested on: HCC 2998
HCT-116 = tested on: HCT-116
HCT-15 = tested on: HCT-15
HL-60 = tested on: HL-60
HOP-62 = tested on: HOP-62
HOP-92 = tested on: HOP-92
HT-29 = tested on: HT-29
Hs-578T = tested on: Hs-578T
IGROV-1 = tested on: IGROV-1
K562 = tested on: K562
KM12 = tested on: KM12
LOX IMVI = tested on: LOX IMVI
M14 = tested on: M14
MCF7 = tested on: MCF7
MDA-MB-231 = tested on: MDA-MB-231
MDA-MB-435 = tested on: MDA-MB-435
MDA-N = tested on: MDA-N
MOLT-4 = tested on: MOLT-4
Malme-3M = tested on: Malme-3M
NCI-H226 = tested on: NCI-H226
NCI-H23 = tested on: NCI-H23
NCI-H460 = tested on: NCI-H460
NCI-H522 = tested on: NCI-H522
NCI/ADR-RES = tested on: NCI/ADR-RES
OVCAR-3 = tested on: OVCAR-3
OVCAR-4 = tested on: OVCAR-4
OVCAR-5 = tested on: OVCAR-5
OVCAR-8 = tested on: OVCAR-8
PC-3 = tested on: PC-3
RPMI-8226 = tested on: RPMI-8226
RXF 393 = tested on: RXF 393
SF-268 = tested on: SF-268
SF-295 = tested on: SF-295
SF-539 = tested on: SF-539
SK-MEL-28 = tested on: SK-MEL-28
SK-MEL-2 = tested on: SK-MEL-2
SK-MEL-5 = tested on: SK-MEL-5
SK-OV-3 = tested on: SK-OV-3
SN12C = tested on: SN12C
SNB-19 = tested on: SNB-19
SNB-75 = tested on: SNB-75
SR = tested on: SR
SW-620 = tested on: SW-620
T47D = tested on: T47D
TK-10 = tested on: TK-10
U-251 = tested on: U-251
UACC-257 = tested on: UACC-257
UACC-62 = tested on: UACC-62
UO-31 = tested on: UO-31

Measured: GI50

CC(=O)Oc1ccc2c(c1)c1c(=O)oc(C)nc1n2Cc1ccccc1
26.7 µM: HCT-15
inactive: 786-0 39.6 µM | A498 23.4 µM | A549 67.5 µM | ACHN 28.7 µM | BT-549 17.4 µM | CAKI-1 4.99 µM | CCRF-CEM > 64.3 µM | COLO 205 24.6 µM | DU-145 > 55.7 µM | EKVX > 53.5 µM | HCC 2998 > 100 µM | HCT-116 40.5 µM | HL-60 57.7 µM | HOP-62 32.7 µM | HOP-92 34 µM | HT-29 > 89.3 µM | Hs-578T > 73.6 µM | IGROV-1 51.4 µM | K562 50.8 µM | KM12 23.6 µM | LOX IMVI 32 µM | M14 40.3 µM | MCF7 47.8 µM | MDA-MB-231 33.7 µM | MDA-MB-435 28.3 µM | MDA-N 27.5 µM | MOLT-4 71.8 µM | Malme-3M 73.6 µM | NCI-H226 24.8 µM | NCI-H23 > 63.5 µM | NCI-H460 > 65.2 µM | NCI-H522 12 µM | NCI/ADR-RES 31.3 µM | OVCAR-3 77.6 µM | OVCAR-4 > 75.7 µM | OVCAR-5 > 84.5 µM | OVCAR-8 37.2 µM | PC-3 41.8 µM | RPMI-8226 56.4 µM | RXF 393 14.8 µM | SF-268 17.6 µM | SF-295 43.6 µM | SF-539 27.5 µM | SK-MEL-28 46.2 µM | SK-MEL-2 19.2 µM | SK-MEL-5 40 µM | SK-OV-3 28.7 µM | SN12C 66.8 µM | SNB-19 69.8 µM | SNB-75 > 41.8 µM | SR > 52.4 µM | SW-620 57.9 µM | T47D 33.5 µM | TK-10 35.2 µM | U-251 30.9 µM | UACC-257 > 100 µM | UACC-62 16.3 µM | UO-31 2.79 µM

CN1CCN(C(=O)CCNC(=O)Cc2ccc(C(=O)c3ccccc3)cc2)CC1
inactive: 786-0 > 100 µM | A498 83.4 µM | A549 > 100 µM | ACHN > 100 µM | BT-549 64.3 µM | CAKI-1 > 100 µM | CCRF-CEM 94.8 µM | COLO 205 74 µM | DU-145 > 100 µM | EKVX > 100 µM | HCC 2998 50 µM | HCT-116 > 100 µM | HL-60 58.3 µM | HOP-62 > 100 µM | HOP-92 > 100 µM | HT-29 > 100 µM | Hs-578T > 100 µM | IGROV-1 > 100 µM | K562 27.9 µM | KM12 48.6 µM | LOX IMVI > 100 µM | M14 > 100 µM | MCF7 > 100 µM | MDA-MB-231 > 100 µM | MDA-MB-435 22.9 µM | MDA-N 15.5 µM | MOLT-4 > 100 µM | Malme-3M > 100 µM | NCI-H226 > 100 µM | NCI-H23 > 100 µM | NCI-H460 > 100 µM | NCI-H522 > 100 µM | NCI/ADR-RES > 100 µM | OVCAR-3 > 100 µM | OVCAR-4 > 100 µM | OVCAR-5 > 100 µM | OVCAR-8 > 100 µM | PC-3 > 100 µM | RPMI-8226 > 100 µM | RXF 393 > 100 µM | SF-268 > 100 µM | SF-295 > 100 µM | SF-539 > 100 µM | SK-MEL-28 > 100 µM | SK-MEL-2 > 100 µM | SK-MEL-5 71.6 µM | SK-OV-3 > 100 µM | SN12C > 100 µM | SNB-19 > 100 µM | SNB-75 > 100 µM | SR > 100 µM | SW-620 97.3 µM | T47D > 100 µM | TK-10 > 100 µM | U-251 > 100 µM | UACC-257 > 100 µM | UACC-62 > 100 µM | UO-31 > 100 µM
> 100 µM: HCT-15
